Test results as given in patent US6376666B1 (Nauchno-Issledovatelsky Institut Farmakologii Rossiiskoi …, priority 1994, dated 2002).

Tests used:
[1] = tested on: adrenaline arrhythmia; assay: adrenaline arrhythmia in concious rabbits; conditions: given 2 min before arrhythmogenic dose of adrenaline
Procedure: Adrenaline arrhythmia. The 0,1% solution of adrenaline hydrochloride was injected to the marginal ear's vein of rabbit weighing 2,5-3,0 kg at dose ranging 120-150 mcg/kg which induced cardiac rhythm disturbances of two types.
The tested compound was injected in 3 ml of distilled water 30 min after determination of arrhythmogenic dose of adrenaline and the ECG was recorded in 2nd standard lead. 2 min after administration of tested compound the arrhythmogenic dose of adrenaline was injected.

[2] = tested on: calcium chloride arrhythmia; assay: calcium chloride arrhythmia in concious rats; format: in vivo; conditions: concious rats
Procedure: In these experiments the outbred concious rats 180-200 g of weight were injected with 10% solution of calcium chloride in tail vein at dose range of 250-300 mg/kg.

[3] = tested on: cats; assay: hemodynamics and activity of intact heart in cats under anesthesia; format: in vivo; conditions: for Cardiac volume, change from basal level / Heart rate, change from basal level / Mean blood flow accelaration (aortic), change from basal level / Mean blood pressure, change from basal level / Stroke volume, change from basal level: cats
Procedure: The effects of compounds on the hemodynamics and activity of intact heart were studied in cats under anesthesia. The experiments were carried out under conditions of open chest. The phase curve of aortic blood flow was the main index of cardiac activity. The compounds were administered i.v. in physiological solution. The t-Student' test was used to estimate the statistical significance.

[4] = 1.0 mg/kg i.v., after injection
[5] = 2.0 mg/kg i.v., after injection

## CN(C)CCSc1nc2ccccc2n1CCc1ccccc1 [Compound XX, 1-(β-Phenylethyl)-2-[2-(dimethylamino)ethylthio]-benzimidazole]
[1]
  Adrenaline arrhythmia. Range of active doses: 0.2−0.7 mg/kg
[2]; Rattus norvegicus, iv, given 2 min prior calcium chloride 250-300 mg/kg i.v., read-out: Calcium chloride arrhythmia ED50 (mean effective dose)
  ED50: 2.03 mg/kg
[2]; given 2 min prior calcium chloride 250-300 mg/kg i.v.
  Calcium chloride arrhythmia ED50 (mean effective dose): 2.0 mg/kg
[2]; injected 2 min prior calcium chloride
  effect on death from lethal ventricular fibrillation, in words: prevents the death of animals
[3]; cats i.v., same doses as bradycardia
  effect on contractile function of heart, in words: slightly enhanced the contractility of myocardium
[3]; cats i.v., VIII 1,0, IX 0,5 and 1,0, XX 1,0 and 2,0 mg/kg
  duration of bradycardia after administration: 30 min
[3]; cats i.v., VIII 1,0, IX 0,5 and 1,0, XX 1,0 and 2,0 mg/kg, XXIII 1.0, verapamil 0.5 mg/kg
  effect on heart rate, in words: expressed bradycardia
[3]; 1.0 mg/kg i.v., after 2 min
  Cardiac volume, change from basal level: +2.5 ± 0.9%
  Heart rate, change from basal level: −4.9 ± 1.5 %
  Mean blood flow accelaration (aortic), change from basal level: −1.4 +1.8%
  Mean blood pressure, change from basal level: ± 5.1 ± 1.7 %
  Stroke volume, change from basal level: +7.9 ± 1.6 %
[3]; 1.0 mg/kg i.v., after 5 min
  Cardiac volume, change from basal level: −3.9 ± 1.5%
  Heart rate, change from basal level: −5.2 ± 2.1%
  Mean blood flow accelaration (aortic), change from basal level: −3.6 ± 2.4%
  Mean blood pressure, change from basal level: +2.0 ± 1.0%
  Stroke volume, change from basal level: +1.7 ± 3.4%
[3]; 1.0 mg/kg i.v., after 10 min
  Cardiac volume, change from basal level: −3.9 ± 2.8%
  Heart rate, change from basal level: −4.3 ± 1.9%
  Mean blood flow accelaration (aortic), change from basal level: −0.6 ± 2.1%
  Mean blood pressure, change from basal level: +1.7 ± 1.2%
  Stroke volume, change from basal level: +0.6 ± 3.5%
[3]; 1.0 mg/kg i.v., after 20 min
  Cardiac volume, change from basal level: −4.1 ± 2.8%
  Heart rate, change from basal level: −5.0 ± 4.2%
  Mean blood flow accelaration (aortic), change from basal level: −2.8 ± 2.6%
  Mean blood pressure, change from basal level: +3.3 ± 2.4%
  Stroke volume, change from basal level: +1.4 ± 3.8%
[3]; 1.0 mg/kg i.v., after 30 min
  Cardiac volume, change from basal level: −7.0 ± 3.4%
  Heart rate, change from basal level: −5.0 ± 4.2%
  Mean blood flow accelaration (aortic), change from basal level: −3.2 ± 1.8%
  Mean blood pressure, change from basal level: +0.3 ± 3.0%
  Stroke volume, change from basal level: −0.5 ± 4.4%
[3]; [4]
  Heart rate, change from basal level: −7.9 ± 1.7 %
  Mean blood flow accelaration (aortic), change from basal level: +10.7 ± 3.3 %
  Mean blood pressure, change from basal level: −0.9 ± 2.7%
  Stroke volume, change from basal level: +25.2 ± 2.6 %
[3]; 2.0 mg/kg i.v., after 2 min
  Cardiac volume, change from basal level: +1.2 ± 2.8%
  Heart rate, change from basal level: −5.2 ± 1.8 %
  Mean blood flow accelaration (aortic), change from basal level: −3.0 ± 3.9%
  Mean blood pressure, change from basal level: ± 4.6 ± 3.5%
  Stroke volume, change from basal level: +6.9 ± 3.1%
[3]; 2.0 mg/kg i.v., after 5 min
  Cardiac volume, change from basal level: −0.5 ± 3.1%
  Heart rate, change from basal level: −4.5 ± 1.4 %
  Mean blood flow accelaration (aortic), change from basal level: +1.6 ± 5.1%
  Mean blood pressure, change from basal level: +3.3 ± 2.5%
  Stroke volume, change from basal level: +4.2 ± 3.8%
[3]; 2.0 mg/kg i.v., after 10 min
  Cardiac volume, change from basal level: −1.4 ± 3.0%
  Heart rate, change from basal level: −3.1 ± 1.6%
  Mean blood flow accelaration (aortic), change from basal level: −1.0 ± 3.1%
  Mean blood pressure, change from basal level: −1.0 ± 1.8%
  Stroke volume, change from basal level: +1.8 ± 2.1%
[3]; 2.0 mg/kg i.v., after 20 min
  Cardiac volume, change from basal level: −4.7 ± 5.2%
  Heart rate, change from basal level: −3.6 ± 1.7%
  Mean blood flow accelaration (aortic), change from basal level: −3.8 ± 4.0%
  Mean blood pressure, change from basal level: −5.3 ± 0.8 %
  Stroke volume, change from basal level: −1.1 ± 5.4%
[3]; 2.0 mg/kg i.v., after 30 min
  Cardiac volume, change from basal level: −5.5 ± 5.2%
  Heart rate, change from basal level: −4.0 ± 2.2%
  Mean blood flow accelaration (aortic), change from basal level: −6.2 ± 4.9%
  Mean blood pressure, change from basal level: −9.6 ± 3.5%
  Stroke volume, change from basal level: +1.7 ± 3.9%
[3]; [5]
  Cardiac volume, change from basal level: +22.7 ± 6.6 %
  Heart rate, change from basal level: −10.7 ± 2.5 %
  Mean blood flow accelaration (aortic), change from basal level: +22.5 ± 9.3%
  Mean blood pressure, change from basal level: −13.6 ± 5.1%
  Stroke volume, change from basal level: +38.5 ± 10.6 %
